{"source": "PubChem BioAssay AID2060492", "about": "(Molecular Pharmacology Branch, DTP, NCI, 2025)", "test_system": "695427-040-R-J1-PDC complex spheroids, viability percent T/C", "assay": "Anticancer human tumor 695427-040-R-J1-PDC patient-derived colon adenocarcinoma cell line growth inhibition [GQUAD]", "settings": "for IC50: curve of first compound; for viability, T/C: stronger effect = lower value", "how_it_was_run": "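Multi-cell-type spheroids of tumor cells with HUVEC and mesenchymal stem cells, treated with drug combinations. Concentrations descend in half-log steps from near clinical Cmax, or from 10 microM where Cmax is unknown; viability read-out.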", "key": {"[1]": {"settings": "second compound 0.0316 µM, first compound 0.0316 µM"}, "[2]": {"settings": "second compound 0.0316 µM, first compound 0.1 µM"}, "[3]": {"settings": "second compound 0.0316 µM, first compound 0.316 µM"}, "[4]": {"settings": "second compound 0.0316 µM, first compound 1 µM"}, "[5]": {"settings": "second compound 0.0316 µM, first compound 3.16 µM"}, "[6]": {"settings": "second compound 0.0316 µM, first compound 10 µM"}, "[7]": {"settings": "second compound 0.1 µM, first compound 0.0316 µM"}, "[8]": {"settings": "second compound 0.1 µM, first compound 0.1 µM"}, "[9]": {"settings": "second compound 0.1 µM, first compound 0.316 µM"}, "[10]": {"settings": "second compound 0.1 µM, first compound 1 µM"}, "[11]": {"settings": "second compound 0.1 µM, first compound 3.16 µM"}, "[12]": {"settings": "second compound 0.1 µM, first compound 10 µM"}, "[13]": {"settings": "second compound 0.316 µM, first compound 0.0316 µM"}, "[14]": {"settings": "second compound 0.316 µM, first compound 0.1 µM"}, "[15]": {"settings": "second compound 0.316 µM, first compound 0.316 µM"}, "[16]": {"settings": "second compound 0.316 µM, first compound 1 µM"}, "[17]": {"settings": "second compound 0.316 µM, first compound 3.16 µM"}, "[18]": {"settings": "second compound 0.316 µM, first compound 10 µM"}, "[19]": {"settings": "second compound 1 µM, first compound 0.0316 µM"}, "[20]": {"settings": "second compound 1 µM, first compound 0.1 µM"}, "[21]": {"settings": "second compound 1 µM, first compound 0.316 µM"}, "[22]": {"settings": "second compound 1 µM, first compound 1 µM"}, "[23]": {"settings": "second compound 1 µM, first compound 3.16 µM"}, "[24]": {"settings": "second compound 1 µM, first compound 10 µM"}, "[25]": {"settings": "second compound 3.16 µM, first compound 0.0316 µM"}, "[26]": {"settings": "second compound 3.16 µM, first compound 0.1 µM"}, "[27]": {"settings": "second compound 3.16 µM, first compound 0.316 µM"}, "[28]": {"settings": "second compound 3.16 µM, first compound 1 µM"}, "[29]": {"settings": "second compound 3.16 µM, first compound 3.16 µM"}, "[30]": {"settings": "second compound 3.16 µM, first compound 10 µM"}, "[31]": {"settings": "second compound 10 µM, first compound 0.0316 µM"}, "[32]": {"settings": "second compound 10 µM, first compound 0.1 µM"}, "[33]": {"settings": "second compound 10 µM, first compound 0.316 µM"}, "[34]": {"settings": "second compound 10 µM, first compound 1 µM"}, "[35]": {"settings": "second compound 10 µM, first compound 3.16 µM"}, "[36]": {"settings": "second compound 10 µM, first compound 10 µM"}}}
{"compound": "CC1COCCN1c1cc(-c2ccnn2C)c2ccnc(-c3ccn[nH]3)c2n1", "note": "(centres undefined) + Cc1cnc(CNC(=O)c2c(=O)c3ccc(N4CCCN(C)CC4)nc3n3c2sc2ccccc23)cn1;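 further: spheroids exposed to compounds for seven days before readout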", "values": [{"measurement": "IC50", "setting": "second compound 0.0316 µM", "result": 120, "unit": "nM"}, {"measurement": "IC50", "setting": "second compound 0.1 µM", "result": 68.4, "unit": "nM"}, {"measurement": "IC50", "setting": "second compound 0.316 µM", "result": 79.2, "unit": "nM"}, {"measurement": "IC50", "setting": "second compound 1 µM", "result": 51.9, "unit": "nM"}, {"measurement": "IC50", "setting": "second compound 3.16 µM", "result": "< 31.6", "unit": "nM"}, {"measurement": "IC50", "setting": "second compound 10 µM", "result": "< 31.6", "unit": "nM"}, {"measurement": "viability, T/C", "setting": "[1]", "result": 62.7, "unit": "%"}, {"measurement": "viability, T/C", "setting": "[2]", "result": 52, "unit": "%"}, {"measurement": "viability, T/C", "setting": "[3]", "result": 38.8, "unit": "%"}, {"measurement": "viability, T/C", "setting": "[4]", "result": 29.9, "unit": "%"}, {"measurement": "viability, T/C", "setting": "[5]", "result": 28.1, "unit": "%"}, {"measurement": "viability, T/C", "setting": "[6]", "result": 26.6, "unit": "%"}, {"measurement": "viability, T/C", "setting": "[7]", "result": 59.9, "unit": "%"}, {"measurement": "viability, T/C", "setting": "[8]", "result": 44.5, "unit": "%"}, {"measurement": "viability, T/C", "setting": "[9]", "result": 36.2, "unit": "%"}, {"measurement": "viability, T/C", "setting": "[10]", "result": 25.6, "unit": "%"}, {"measurement": "viability, T/C", "setting": "[11]", "result": 29.4, "unit": "%"}, {"measurement": "viability, T/C", "setting": "[12]", "result": 29.2, "unit": "%"}, {"measurement": "viability, T/C", "setting": "[13]", "result": 69.3, "unit": "%"}, {"measurement": "viability, T/C", "setting": "[14]", "result": 43.2, "unit": "%"}, {"measurement": "viability, T/C", "setting": "[15]", "result": 37.3, "unit": "%"}, {"measurement": "viability, T/C", "setting": "[16]", "result": 28, "unit": "%"}, {"measurement": "viability, T/C", "setting": "[17]", "result": 30, "unit": "%"}, {"measurement": "viability, T/C", "setting": "[18]", "result": 24.9, "unit": "%"}, {"measurement": "viability, T/C", "setting": "[19]", "result": 58.8, "unit": "%"}, {"measurement": "viability, T/C", "setting": "[20]", "result": 35.6, "unit": "%"}, {"measurement": "viability, T/C", "setting": "[21]", "result": 34.1, "unit": "%"}, {"measurement": "viability, T/C", "setting": "[22]", "result": 22.7, "unit": "%"}, {"measurement": "viability, T/C", "setting": "[23]", "result": 27.7, "unit": "%"}, {"measurement": "viability, T/C", "setting": "[24]", "result": 14.8, "unit": "%"}, {"measurement": "viability, T/C", "setting": "[25]", "result": 21.8, "unit": "%"}, {"measurement": "viability, T/C", "setting": "[26]", "result": 31.4, "unit": "%"}, {"measurement": "viability, T/C", "setting": "[27]", "result": 28.9, "unit": "%"}, {"measurement": "viability, T/C", "setting": "[28]", "result": 20.6, "unit": "%"}, {"measurement": "viability, T/C", "setting": "[29]", "result": 20.5, "unit": "%"}, {"measurement": "viability, T/C", "setting": "[30]", "result": 11.5, "unit": "%"}, {"measurement": "viability, T/C", "setting": "[31]", "result": 24.9, "unit": "%"}, {"measurement": "viability, T/C", "setting": "[32]", "result": 19.6, "unit": "%"}, {"measurement": "viability, T/C", "setting": "[33]", "result": 24.8, "unit": "%"}, {"measurement": "viability, T/C", "setting": "[34]", "result": 16.6, "unit": "%"}, {"measurement": "viability, T/C", "setting": "[35]", "result": 13.6, "unit": "%"}, {"measurement": "viability, T/C", "setting": "[36]", "result": 1.36, "unit": "%"}]}
{"compound": "CC1COCCN1c1cc(C2(O)CC3CCC(C2)O3)c2cnn(-c3ccn[nH]3)c2n1", "note": "(centres undefined) + Cc1cnc(CNC(=O)c2c(=O)c3ccc(N4CCCN(C)CC4)nc3n3c2sc2ccccc23)cn1", "values": [{"measurement": "IC50", "setting": "second compound 0.0316 µM", "result": 277, "unit": "nM"}, {"measurement": "IC50", "setting": "second compound 0.1 µM", "result": 220, "unit": "nM"}, {"measurement": "IC50", "setting": "second compound 0.316 µM", "result": 91.1, "unit": "nM"}, {"measurement": "IC50", "setting": "second compound 1 µM", "result": "< 31.6", "unit": "nM"}, {"measurement": "IC50", "setting": "second compound 3.16 µM", "result": "< 31.6", "unit": "nM"}, {"measurement": "IC50", "setting": "second compound 10 µM", "result": "< 31.6", "unit": "nM"}, {"measurement": "viability, T/C", "setting": "[1]", "result": 75.1, "unit": "%"}, {"measurement": "viability, T/C", "setting": "[2]", "result": 63, "unit": "%"}, {"measurement": "viability, T/C", "setting": "[3]", "result": 49.8, "unit": "%"}, {"measurement": "viability, T/C", "setting": "[4]", "result": 31.1, "unit": "%"}, {"measurement": "viability, T/C", "setting": "[5]", "result": 26, "unit": "%"}, {"measurement": "viability, T/C", "setting": "[6]", "result": 18.1, "unit": "%"}, {"measurement": "viability, T/C", "setting": "[7]", "result": 79, "unit": "%"}, {"measurement": "viability, T/C", "setting": "[8]", "result": 57, "unit": "%"}, {"measurement": "viability, T/C", "setting": "[9]", "result": 47, "unit": "%"}, {"measurement": "viability, T/C", "setting": "[10]", "result": 34.1, "unit": "%"}, {"measurement": "viability, T/C", "setting": "[11]", "result": 30.3, "unit": "%"}, {"measurement": "viability, T/C", "setting": "[12]", "result": 20.9, "unit": "%"}, {"measurement": "viability, T/C", "setting": "[13]", "result": 81.7, "unit": "%"}, {"measurement": "viability, T/C", "setting": "[14]", "result": 41.3, "unit": "%"}, {"measurement": "viability, T/C", "setting": "[15]", "result": 40.2, "unit": "%"}, {"measurement": "viability, T/C", "setting": "[16]", "result": 26.8, "unit": "%"}, {"measurement": "viability, T/C", "setting": "[17]", "result": 26.4, "unit": "%"}, {"measurement": "viability, T/C", "setting": "[18]", "result": 18.4, "unit": "%"}, {"measurement": "viability, T/C", "setting": "[19]", "result": 38.5, "unit": "%"}, {"measurement": "viability, T/C", "setting": "[20]", "result": 41.1, "unit": "%"}, {"measurement": "viability, T/C", "setting": "[21]", "result": 31.5, "unit": "%"}, {"measurement": "viability, T/C", "setting": "[22]", "result": 29.7, "unit": "%"}, {"measurement": "viability, T/C", "setting": "[23]", "result": 28.2, "unit": "%"}, {"measurement": "viability, T/C", "setting": "[24]", "result": 14.3, "unit": "%"}, {"measurement": "viability, T/C", "setting": "[25]", "result": 30.2, "unit": "%"}, {"measurement": "viability, T/C", "setting": "[26]", "result": 35, "unit": "%"}, {"measurement": "viability, T/C", "setting": "[27]", "result": 28.5, "unit": "%"}, {"measurement": "viability, T/C", "setting": "[28]", "result": 16.9, "unit": "%"}, {"measurement": "viability, T/C", "setting": "[29]", "result": 19.5, "unit": "%"}, {"measurement": "viability, T/C", "setting": "[30]", "result": 4.04, "unit": "%"}, {"measurement": "viability, T/C", "setting": "[31]", "result": 22.1, "unit": "%"}, {"measurement": "viability, T/C", "setting": "[32]", "result": 22.2, "unit": "%"}, {"measurement": "viability, T/C", "setting": "[33]", "result": 19.3, "unit": "%"}, {"measurement": "viability, T/C", "setting": "[34]", "result": 15.2, "unit": "%"}, {"measurement": "viability, T/C", "setting": "[35]", "result": 8.74, "unit": "%"}, {"measurement": "viability, T/C", "setting": "[36]", "result": 0.42, "unit": "%"}]}
